This note sets out measurements from patent US20020169140A1, “Combination therapy for reduction of toxicity of chemotherapeutic agents” (priority 2001, published 2002).

Assay [1] relates to large cell lung cancer line LXFL 529L. In words: Monolayer proliferation inhibition, modified propidium iodide assay. Format: cell-based. The following applies: for in vitro activity of the agent alone: single agent, stated for both cell lines; for In vitro activity (Test/Control %): 4 days exposure, median of 5 experiments; for tumour effects (words): circiliol alone at 3 μg/ml.

In assay [2] the test system is lung adenocarcinoma cell line LXFA 526L. The assay is described as above. It is filed as cell-based. The following applies: for in vitro activity of the agent alone: single agent, stated for both cell lines; for In vitro activity (Test/Control %): 4 days exposure, median of 5 experiments; for tumour effects (words): circiliol alone at 3 μg/ml.
Setting [3] is: LXFA 529L, 0 μg/ml circiliol, median of 2-5 experiments.
[4] abbreviates: LXFA 529L, +3 μg/ml circiliol, median of 2-5 experiments.

Entries after “also recorded” stand apart in the source; their conditions may differ.

Consider `Nc1ccn([C@@H]2O[C@H](CO)[C@@H](O)C2(F)F)c(=O)n1` [gemcitabine, 2′, 2′-diflouro-2′-deoxycytidine, reference compound], for which the “IC50 of gemcitabine alone” value in assay [1] (setting [3]) worked out at 0.355 mg/L. In addition, the “IC70 of gemcitabine alone” value in assay [1] (setting [3]) amounted to 0.64 mg/L; in assay [2] (LXFA 526L, 0 μg/ml circiliol, median of 2-5 experiments) it was 5.6 mg/L; in assay [2] (LXFA 526L, 0 μg/ml circiliol, median of 2-5 experiments, listed as Gemcitabine), 5.7 mg/L. Besides, in assay [1] (setting [4]), the “IC50 of gemcitabine in combination with circiliol” value was 0.039 mg/L. For the same compound, the “IC70 of gemcitabine in combination with circiliol” value was 0.076 mg/L in assay [1] (setting [4]); 0.87 mg/L in assay [2] (LXFA 526L, +3 μg/ml circiliol, median of 2-5 experiments); 0.58 mg/L in assay [2] (LXFA 526L, +30 μg/ml circiliol, median of 2-5 experiments). Further, the “fold increase of antitumour activity of gemcitabine (IC70 shift)” value in assay [1] (LXFA 529L, with 30 μg/ml circiliol) is given as 19 fold; in assay [2] (LXFA 526L, with 30 μg/ml circiliol), 10 fold. The IC50 (as a rule, the concentration needed to halve the response being measured) in assay [1] (LXFL 529L, LXFA 529L, 0 μg/ml circiliol, median of 2-5 experiments, read-out: IC50 of gemcitabine alone) worked out at 0.36 mg/L; in assay [2] (LXFA 526L, 0 μg/ml circiliol, median of 2-5 experiments, read-out: IC50 of gemcitabine alone), 0.63 mg/L. The “in vitro activity of the agent alone” value in assay [1] and in assay [2] was “potently active” each time.
On to `COc1cc2oc(-c3ccc(O)c(O)c3)cc(=O)c2c(O)c1OC` [Circiliol, 6,7-dimethoxy-5,3′4′-trihydroxyflavone], for which the “In vitro activity (Test/Control %)” value in assay [1] (LXFA 529L, circiliol 3 μg/ml) stood at 102%; in assay [1] (LXFA 529L, circiliol 30 μg/ml), 49%; in assay [1] (LXFA 529L, circiliol 300 μg/ml), 39%; in assay [2] (LXFA 526L, circiliol 3 μg/ml) it was 93%; in assay [2] (LXFA 526L, circiliol 30 μg/ml) it was 53%; in assay [2] (LXFA 526L, circiliol 300 μg/ml) it was 55%. Moreover, the “tumour effects (words)” value is “inactive alone” in assay [1], “no tumour effects” in assay [1] (listed as circiliol), “inactive alone” in assay [2] and “no tumour effects” in assay [2] (listed as circiliol). Besides, the “inhibition of tumour growth in vitro” value in assay [1] (circiliol alone at 30 μg/ml) and in assay [2] (circiliol alone at 30 μg/ml) was 50% throughout. The “antitumour activity in vitro” value in assay [1] (circiliol alone at <3 μg/ml) and in assay [2] (circiliol alone at <3 μg/ml) was “no antitumour activity” each time. For the same compound, the “in vitro activity of the agent alone” value in assay [1] and in assay [2] was “only moderately active; also recorded: low activity” throughout.
